Patent US9918991B2, “Topical antimicrobial compositions and methods of using same” (Hydromer, Inc., priority 2010, dated 2018)

Experiments:
[1] = test system: digital dermatitis lesion (DDL); assay: Footbath study in a large commercial dairy farm, digital dermatitis lesions; assay type: in vivo, cows; settings: study 1; 5% solution, twice weekly; mixed logistic regression
Protocol: The study was conducted in a large commercial dairy farm. […] The adjusted odds of digital dermatitis lesion (DDL) throughout the study period were analyzed by mixed logistic regression model.

bacteria [2] = assay: Bacteria growth inhibition on the hoof (Test Method MCR 3.0 with actual hoof material); assay type: cell-based; settings: aqueous solution 0.25 to 0.5%
From the text: (§1) Comparative Antimicrobial Testing of Example 4 with Cosmetic Dyes According to Test Method MCR 3.0 with Actual Hoof Material

fungi = assay: Fungi growth inhibition on the hoof (Test Method MCR 3.0 with actual hoof material); assay type: cell-based; settings: aqueous solution 0.25 to 0.5%
From the text: as §1

[3] = Influence of hoof bath contamination by dirt and manure on effectiveness
[4] = test system: Arcanobacterium pyogenes (ATCC#9731 and ATCC#19411); assay: MIC Test against Arcanobacterium pyogenes under anaerobic conditions (TOXIKON); assay type: cell-based
Protocol: MIC Test of example 4 against Arcanobacterium pyogenes (ATCC#9731 and ATCC#19411) under anaerobic conditions were conducted by the TOXIKON.
Under the same conditions as mentioned in Example 5 conducted by TOXIKON the MIC of a 10% copper sulfate solution (commonly used in hoof baths worldwide) was determined.

T. mentagrophytes = assay: Hoof samples submerged, washed to simulate leaching, overlaid with T. mentagrophytes agar; assay type: cell-based; settings: 10 wt. % solution; hoof submerged 15 seconds, washed two hours, 3 and 6 days
Protocol: (§2) Hoof samples were submerged for 15 seconds in (1) the composition of the invention (i.e., 4:1 of cosmetic dye:Phenoxyethanol, total amount about 0.3 wt. %); (2.1) a 10 wt. % copper sulfate (2.2) a 10 wt. % zinc sulfate solution; (3) untreated as a control. The samples were then washed for two hours to simulate leaching. The samples were then placed into melted PA agar to solidify. Melted agar containing 10E5 CFU/ml of T. mentagrophytes was then added and incubated at room temperature for 3 and 6 days.
as §2, with “antimicrobial” for “cosmetic”, “about 0.21 wt. % or” for “about”, “(2)” for “(2.1)”, “or” for “(2.2) a”, “solution; or” for “solution;”

bacteria [5] = assay: Growth / inhibition activity on a hoof surface; assay type: cell-based; settings: 0.2% alone

With C=O [formalin] the “odds of DDL compared with the Dragonhyde group” value [1] was 1.36 times higher.
With CN(C)c1ccc(C(=C2C=CC(=[N+](C)C)C=C2)c2ccc(N(C)C)cc2)cc1.[Cl-] [Gentian Violet, N-[4[Bis[4-(dimethylamino)-phenyl]methylene]-2,5-cyclohexadien-1-ylidene]-N-methyl-methanaminium chloride] the “bacteria growth inhibition on the hoof” value (bacteria [2]) was 90% and the “fungi growth inhibition on the hoof” value (fungi) was 80%.
For benzalkonium chloride, the “loses effectiveness after contamination” value ([3]; at 1% concentration, FIG. 4) was no more than 24 h.
With O=CCCCC=O [glutaraldehyde] the “loses effectiveness after contamination” value ([3]; at 2% concentration, FIG. 3) was no more than 24 h.
In the case of O=S(=O)([O-])[O-].[Cu+2] [copper sulfate], the “loses effectiveness after contamination” value ([3]; at 2.5% and 5% concentrations, FIG. 1) is reported as no more than 4 h, the “MIC (concentration giving about 100% reduction / kill)” value ([4]; anaerobic conditions, both strains) is reported as “at least 0.078%” and the kill rate ([4]; concentration at least 0.078%, both strains) is reported as roughly 100%. The “required concentration in comparison to a solution according to example 4” value ([4]; to control Arcanobacterium pyogenes) was “at least 8 times” and the microbial growth (T. mentagrophytes) was “intense microbial growth”.
With Cc1cc2nc3ccc(N(C)C)cc3[s+]c2cc1N.[Cl-] [Toluidine Blue] the “bacteria growth inhibition on the hoof” value (bacteria [2]) was 80%, the “fungi growth inhibition on the hoof” value (fungi) was 50% and the “growth on a hoof surface” value (bacteria [5]) was “bacterial growth”.
In the case of CN(C)c1ccc2nc3ccc(=[N+](C)C)cc-3sc2c1 [Methylene Blue], the “bacteria growth inhibition on the hoof” value (bacteria [2]) is reported as 60% and the “fungi growth inhibition on the hoof” value (fungi) is reported as 50%.
With O=S(=O)([O-])[O-].[Zn+2] [zinc sulfate] the microbial growth (T. mentagrophytes) was “intense microbial growth”.
